These results are taken from paper PMC2851405 (Biochemistry, 2010).

The target of this test is HPAO-1 (Ogataea angusta, UniProt P12807). Description: phenylhydrazone formation, absorbance. Format: binding. The following applies: covalent; adduct with TPQ cofactor.
HPAO-1, sequence (P12807 whole entry): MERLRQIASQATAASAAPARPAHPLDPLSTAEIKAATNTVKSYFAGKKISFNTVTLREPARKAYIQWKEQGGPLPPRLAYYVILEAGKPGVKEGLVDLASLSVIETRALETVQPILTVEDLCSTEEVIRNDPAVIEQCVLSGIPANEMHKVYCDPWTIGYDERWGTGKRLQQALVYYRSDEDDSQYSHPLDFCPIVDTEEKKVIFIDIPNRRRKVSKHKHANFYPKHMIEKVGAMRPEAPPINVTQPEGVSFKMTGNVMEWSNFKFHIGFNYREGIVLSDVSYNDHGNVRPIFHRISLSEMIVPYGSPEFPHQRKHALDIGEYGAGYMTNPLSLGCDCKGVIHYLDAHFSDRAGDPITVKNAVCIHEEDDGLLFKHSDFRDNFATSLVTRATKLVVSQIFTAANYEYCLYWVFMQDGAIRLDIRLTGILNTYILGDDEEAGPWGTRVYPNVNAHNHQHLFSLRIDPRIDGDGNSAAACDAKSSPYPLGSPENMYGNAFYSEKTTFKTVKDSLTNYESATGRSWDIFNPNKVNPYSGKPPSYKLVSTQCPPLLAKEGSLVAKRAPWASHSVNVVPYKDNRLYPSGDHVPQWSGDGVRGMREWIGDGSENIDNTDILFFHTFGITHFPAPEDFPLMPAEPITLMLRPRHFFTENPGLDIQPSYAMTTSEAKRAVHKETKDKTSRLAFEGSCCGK

As for `NNc1ccccc1` [phenylhydrazine], the “rate of phenylhydrazone formation” value turned out to be 0.0078 ± 0.0007 s⁻¹.
